Source: patent publication US20170086736A1, “METHODS AND SYSTEMS USING NON-LABELED ANTIMETABOLITES AND ANALOGS THEREOF AS THERANOSTIC AGENTS” (The Johns Hopkins University, priority 2014, published 2017)

How the values were obtained:
[1] = CEST MRI of drugs in PBS solution (in vitro phantom); format: physicochemical; conditions: for offset of CEST contrast corresponding to NH2 / offset of CEST contrast corresponding to OH: PBS solution, 20 mM, pH 7.4, 37° C., B1=3.6 μT, 3 s
Excerpt: This would of course correspond only to an mM or μM change for the drug and would not be detectable on the large MRI signal of 55 M water molecules (110 M protons). However, for every saturated proton leaving from the solute to water, an intact proton relocates from water to the solute, a process so-called chemical or proton exchange, and subsequently gets saturated again, which will be transferred to the water again in the next exchange. If the exchange rate is fast enough, this continuous process can lead to great signal amplification of the NMR signal carried by the agent, even up to thousands of times (depending on the exchange rate). This can then cause a several percentage decrease in the water signal, allowing imaging of the low-concentration agent with the sensitivity of the water signal. The percentage of water signal decrease, or CEST contrast, is traditionally described by magnetization transfer ratio asymmetry (MTRasym) defined by MTRasym=(S^−Δω−S^+Δω)/S0, where […] are the MRI signal with RF irradiation at particular offsets +Δω and −Δω respectively, and So is that acquired without RF saturation (element (d) of FIG. 1). Because having detectable exchangeable protons (at an appropriate rate at an adequate concentration) is a requirement for generating CEST MRI signal, it thus opens the possibility to detect natural biocompatible molecules by their CEST signal, potentially improving the clinical translatability.
Elements (a)-(d) of FIG. 1 show an illustration of CEST contrast (taken from reference [^1] with permission). […] However, this process is repeated continuously, leading to effect amplification of magnitude depending on the exchange rate (ksw). The CEST contrast can be quantified by a NMR spectrum element (b), a z spectrum in element (c) of frequency dependence of normalized saturated water signal Ssat/S0, with S0 the non-saturated signal) or, an MTRasym plot in element (d). Elements (e)-(f) show CEST detection of drugs through their carried exchangeable protons on NH2 (blue) and OH (red) as exemplified by araC (left) and Gem (right) in PBS solution (20 mM, pH 7.4) at 37° C. using a standard CEST MRI method (RF pulse field strength (B1)=3.6 μT and duration =3 s). […] Elements (f)-(g) of FIG. 1 show the CEST contrast of them as quantified by z-spectra and MTRasym plots respectively, showing strong CEST contrast at ˜1 and ˜2 ppm corresponding to OH and NH2 respectively, which appear partially overlapped at pH 7.4 but can be resolved at low saturation power.
Other drugs, including prodrugs and drug modulators, as well as the drug carriers, are intended to be included within the general scope of this invention. Many of them have exchangeable protons such as OH, NH and NH2 (FIG. 1). Thus, in one embodiment, the water exchangeable proton corresponds to at least one of an OH, NH2 or NH group. The water-exchangeable proton can include at least one of an OH, NH2 or NH group. Other antitumor categories and the biochemical drug modulators (a non-toxic agent that can enhance the effect of drugs when used together, but has no effect when used alone) as listed in Table 1 are also intended to be within the scope of the current invention.

[2] = patients, repetitive infusions, single dose 3 g/m^2 over three hours, up to eight doses; cited from earlier work
[3] = single dose of 800 mg/kg (i.p.); cited from earlier work
[4] = in vivo; cited from earlier work

SMILES	offset of CEST contrast corresponding to NH2 [1] [ppm]	offset of CEST contrast corresponding to OH [1] [ppm]	cerebellar toxicity [2]	accumulation of gemcitabine in tumor [3]	offset at which the maximum CEST signal could be detected ([1]; at low pH) [ppm]	maximum tolerated dose (MTD) [4] [m^g/m2]
Nc1ccn([C@@H]2O[C@H](CO)[C@@H](O)[C@@H]2O)c(=O)n1 [araC, Cytarabine]	~2	~1	no noticeable cerebellar toxicity	–	–	–
Nc1ccn([C@@H]2O[C@H](CO)[C@@H](O)C2(F)F)c(=O)n1 [gemcitabine, Gemcitabine]	~2	~1	–	up to several mM	3.2	2200
